# Test results reported in ChEMBL document CHEMBL1201862, “PubChem BioAssay data set” (2004).
#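 Briefly, cells in 96-well plates were exposed to five compound concentrations for 48 h, and endpoints were estimated by linear interpolation. The concentration for 50% growth inhibition is given as GI50.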 Active and inactive are the calls of the source. Cut-off read from the data, not from the text of the source: active = GI50 up to about 1.1 µM and inactive = higher.
# Key:
# Assay in all cases: growth of human tumour cells (NCI), 48 h
# [1] = tested on: A498
# [2] = tested on: ACHN
# [3] = tested on: BT-549
# [4] = tested on: DU-145
# [5] = tested on: HCT-15
# [6] = tested on: HL-60
# [7] = tested on: HOP-92
# [8] = tested on: Hs-578T
# [9] = tested on: K562
# [10] = tested on: MCF7
# [11] = tested on: MDA-MB-231
# [12] = tested on: MDA-MB-435
# [13] = tested on: MDA-N
# [14] = tested on: NCI/ADR-RES
# [15] = tested on: OVCAR-3
# [16] = tested on: OVCAR-8
# [17] = tested on: PC-3
# [18] = tested on: T47D
# [19] = tested on: UACC-62
# [20] = tested on: SNB-78
Structure (SMILES),GI50 [1],GI50 [2],GI50 [3],GI50 [4],GI50 [5] [µM],GI50 [6],GI50 [7],GI50 [8],GI50 [9],GI50 [10],GI50 [11],GI50 [12],GI50 [13],GI50 [14],GI50 [15],GI50 [16],GI50 [17],GI50 [18],GI50 [19],GI50 [20]
CC(=O)c1nccc2c1c(C)nc1ccccc12,48 µM (inactive),> 100 µM (inactive),97.3 µM (inactive),> 100 µM (inactive),58.9,67.8 µM (inactive),25.8 µM (inactive),30.3 µM (inactive),71.3 µM (inactive),39.7 µM (inactive),38.3 µM (inactive),> 100 µM (inactive),53.6 µM (inactive),> 100 µM (inactive),> 100 µM (inactive),72.6 µM (inactive),85.1 µM (inactive),43.4 µM (inactive),53.7 µM (inactive),–
Cc1cc(O)nc(NN2C(Cl)C(=O)C2c2cccc([N+](=O)[O-])c2)n1 (centres undefined),–,29.2 µM (inactive),–,–,15.1,13.5 µM (inactive),19.3 µM (inactive),–,18.3 µM (inactive),–,–,–,–,–,14.8 µM (inactive),34.8 µM (inactive),–,–,19.4 µM (inactive),32.2 µM (inactive)
CCCCCCNC(=O)C1=C(C)NC(C)=C(C(=O)NCCCCCC)C1,> 100 µM (inactive),> 100 µM (inactive),> 100 µM (inactive),> 100 µM (inactive),> 100,31 µM (inactive),73.3 µM (inactive),> 100 µM (inactive),65.8 µM (inactive),> 100 µM (inactive),> 100 µM (inactive),64.7 µM (inactive),75.5 µM (inactive),> 100 µM (inactive),> 100 µM (inactive),> 100 µM (inactive),> 100 µM (inactive),> 100 µM (inactive),> 100 µM (inactive),–
COc1ccc(CCC2NCCc3cc(OC)c(OC)cc32)cc1 (centres undefined),> 100 µM (inactive),> 100 µM (inactive),–,–,> 100,–,–,–,> 100 µM (inactive),–,–,–,–,–,> 100 µM (inactive),> 100 µM (inactive),–,–,–,79.8 µM (inactive)
CN(CCN(C)CCN(C)C(=O)Cc1ccc(Cl)c(Cl)c1)CCN1CCCC1,16.4 µM (inactive),45.9 µM (inactive),25.7 µM (inactive),57.3 µM (inactive),37.3,18.2 µM (inactive),5.71 µM (inactive),28.5 µM (inactive),3.24 µM (inactive),24.2 µM (inactive),17.7 µM (inactive),5.68 µM (inactive),6.85 µM (inactive),> 100 µM (inactive),63.5 µM (inactive),34.9 µM (inactive),34.7 µM (inactive),24.6 µM (inactive),4.52 µM (inactive),–
COC1=C(C(c2cc(OC)c(OC)c(OC)c2)c2cc3c(cc2OC)OCO3)C(=O)OC1 (centres undefined),14.9 µM (inactive),26.7 µM (inactive),47.2 µM (inactive),29.2 µM (inactive),20.4,8.55 µM (inactive),58.9 µM (inactive),9.18 µM (inactive),15 µM (inactive),29 µM (inactive),28.6 µM (inactive),4.66 µM (inactive),3.94 µM (inactive),5.69 µM (inactive),22.3 µM (inactive),27 µM (inactive),15.7 µM (inactive),> 100 µM (inactive),10.6 µM (inactive),–
CCOC(=O)C1S(=O)(=O)OCCOS1(=O)=O,–,–,–,–,–,> 100 µM (inactive),> 100 µM (inactive),–,> 100 µM (inactive),–,–,–,–,–,> 100 µM (inactive),> 100 µM (inactive),–,–,> 100 µM (inactive),> 100 µM (inactive)
